Laboratory results from patent publication US6492398B1, “Thiazoloindolinone compounds” (SmithKline Beechman Corporation, priority 1999, dated 2002).
Converted amounts (≈) assume the structure as drawn.

Experiments:
[1] = Solubilities in solvent media (PEG 400, transcutol, methanol); assay type: physicochemical
Text: The solubilities (in milligrams per milliliter, mg/mL) of the Form A compound in polyethylene glycol 400, transcutol and methanol solvents are as follows:
The solubilities (in milligrams per milliliter, mg/mL) of Form B in polyethylene glycol 400, transcutol and methanol solvents are as follows: […]

[2] = Crystallization determinations, solubility comments (Table IV); assay type: physicochemical; details: for Solubility (Comments): evaporation at 25° C.
Procedure: Recrystallization procedures for the respective forms were carried out in each case with the compound being dissolved in the selected solvent and stored at ambient temperature (e.g., 25° C.) until the solvent evaporated. The solid residue was then analyzed by x-ray diffraction.
In the respective anti-solvent determinations, the compound was dissolved in a selected solvent at 25° C., and water or alcohol was added to precipitate a solid. The solid was analyzed by x-ray diffraction.
The compound 4-(((7-oxo-6,7-dihydro-8H-[1,3]thiazolo[5,4-e]indol-8-ylidene)-methyl)amino)-N-(4-pyridinylmethyl) benzenesulfonamide was subjected to crystallization determinations using various solvents and methods of crystallization as described in Table IV below.
In the case of solvent that are relatively non-volatile (DMSO, DMF), complete evaporation was difficult to achieve at […] The presence of solvent was evident as an amorphous hump in the PXRD pattern. Cooling at 5° C. was less successful than the other crystallization approaches as a consequence of the low solubility of 4-(((7 oxo-6,7-dihydro-8H [1,3]thiazolo[5,4-e]indol-8-ylidene)methyl)amino)-N-(4-pyridinylmethyl) benzenesulfonamide under such conditions.

Solubility ([1]; polyethylene glycol 400, organic solvent or mixture, solvent PEG 400 (polyethylene glycol 400), read-out: Solubility) [mg/mL]	Solubility ([1]; solvent methanol) [mg/mL]	Solubility ([1]; transcutol, organic solvent or mixture, solvent transcutol, read-out: Solubility) [mg/mL]	Solubility ([2]; organic solvent or mixture, solvent ethyl acetate, cooling at 5° C.) [mg/mL]	Solubility (Comments) ([2]; solvent pyridine)	Solubility ([1]; solvent PEG 400 (polyethylene glycol 400)) [mg/mL]	Solubility ([1]; solvent transcutol) [mg/mL]	Solubility (Comments) ([2]; solvent ethyl acetate)	SMILES
4.76 (≈ 10.3 mM)	0.30 (≈ 0.647 mM)	3.15 (≈ 6.8 mM)	< 0.06	low	–	–	–	O=C1Nc2ccc3ncsc3c2C1=CNc1ccc(S(=O)(=O)NCc2ccncc2)cc1 [Form A, 4-{[(7-oxo-6,7-dihydro8H-[1,3]thiazolo[5,4-e]indol-8-ylidene)methyl]amino}-N-(4-pyridinylmethyl)-benzenesulfonamide]
–	0.08 (≈ 0.173 mM)	–	–	–	4.5 (≈ 9.71 mM)	2.77 (≈ 5.98 mM)	low	O=C1Nc2ccc3ncsc3c2C1=CNc1ccc(S(=O)(=O)NCc2ccncc2)cc1 [Form B, 4-{[(7-oxo-6,7-dihydro-8H-[1,3]thiazolo[5,4-e]indol-8-ylidene)methyl]amino}-N-(4-pyridinylmethyl)-benzenesulfonamide]
